Results: ChEMBL document CHEMBL1131969, “Quinoline-2,4-dicarboxylic acids: synthesis and evaluation as inhibitors of the glutamate vesicular transport system” (Bioorg Med Chem Lett, 1999)

Key:
[1] = Compound was evaluated for the kinetic parameter Vmax (maximum velocity); assay type: ADME
[2] = Compound was evaluated for the kinetic parameter (Km); assay type: ADME

Work on `N[C@@H](CCC(=O)O)C(=O)O` [GLUTAMIC ACID] yielded a Vmax [1] of 18.3 pM/min/mg and a Km [2] of 1.65 µM.
